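Assay format: 96-well plates, 48-hour exposure. GI50 = concentration required for 50% inhibition of growth.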 Activity calls are given as the source filed them. Cut-off read from the data, not from the text of the source: active = GI50 up to about 1.1 µM and inactive = higher.
Columns and labels:
Assay in all cases: NCI-60 cell line screen, 48 h
[1] = system: 786-0
[2] = system: A549
[3] = system: ACHN
[4] = system: BT-549
[5] = system: COLO 205
[6] = system: HL-60
[7] = system: Hs-578T
[8] = system: MDA-MB-231
[9] = system: MDA-N
[10] = system: Malme-3M
[11] = system: NCI-H226
[12] = system: NCI-H23
[13] = system: OVCAR-5
[14] = system: OVCAR-8
[15] = system: RXF 393
[16] = system: SF-295
[17] = system: SF-539
[18] = system: TK-10
[19] = system: UACC-257
[20] = system: UO-31

Measured: GI50

O=C(NCc1ccccc1)c1c(O)nc2ccccc2c1O
inactive: [1] > 100 µM | [2] > 100 µM | [3] > 100 µM | [4] > 100 µM | [5] > 100 µM | [6] > 100 µM | [7] 40.7 µM | [8] > 100 µM | [9] > 100 µM | [10] > 100 µM | [11] > 100 µM | [12] > 100 µM | [13] > 100 µM | [14] > 100 µM | [15] > 100 µM | [16] > 100 µM | [17] > 100 µM | [18] > 100 µM | [19] > 100 µM | [20] > 100 µM

CC(C)[Si]1(C(C)C)OCC2OC(n3cnc4c(N)ncnc43)C(N)C2O[Si](C(C)C)(C(C)C)O1 (centres undefined)
inactive: [1] 5.11 µM | [2] 5.58 µM | [3] 3.44 µM | [4] 6.41 µM | [5] 5.68 µM | [6] 3.78 µM | [7] 11.8 µM | [8] 13.7 µM | [9] 6.32 µM | [10] 17.8 µM | [11] 9.66 µM | [12] 9.16 µM | [13] 16.8 µM | [14] 8.24 µM | [15] 8.97 µM | [16] 3.65 µM | [17] 11.6 µM | [18] 10.1 µM | [19] 5.73 µM | [20] 3.47 µM

CC(=O)SC(C[N+](=O)[O-])c1ccc2c(c1)OCO2 (centres undefined)
inactive: [1] 3.64 µM | [2] 14.2 µM | [3] 8.81 µM | [4] 6.17 µM | [5] 6.37 µM | [6] 1.97 µM | [7] 12.9 µM | [8] 7.45 µM | [9] 2.1 µM | [10] 8.11 µM | [11] 18.7 µM | [12] 5.89 µM | [13] 7.83 µM | [14] 13.6 µM | [15] 1.9 µM | [16] 10.9 µM | [17] 2.37 µM | [18] 14.4 µM | [19] 9.1 µM | [20] 5.46 µM

COc1cc2c(cc1OCCCCCCCCCCN1C(=O)c3cccc4cccc(c34)C1=O)N=C[C@@H]1CCCN1C2=O
inactive: [1] 9.06 µM | [2] 12.4 µM | [3] 10 µM | [4] 6.25 µM | [5] 3.52 µM | [6] 4.27 µM | [7] 6.89 µM | [8] 3.62 µM | [9] 7.55 µM | [10] 12 µM | [11] 1.72 µM | [12] 6.21 µM | [13] 25.8 µM | [14] 4.95 µM | [15] 3.85 µM | [16] 6.55 µM | [17] 1.55 µM | [18] 13.5 µM | [19] 16.1 µM | [20] 7.46 µM

CC(NC1=CC(=O)c2ncccc2C1=O)C(O)c1ccccc1 (centres undefined)
inactive: [1] 8.69 µM | [2] 3.03 µM | [3] 7 µM | [4] 1.85 µM | [5] 16 µM | [6] 3.44 µM | [7] 4.2 µM | [8] 2.41 µM | [9] 1.58 µM | [10] 1.89 µM | [11] 5.55 µM | [12] 1.62 µM | [13] 15.5 µM | [14] 4.37 µM | [15] 7.76 µM | [16] 3.32 µM | [17] 6.04 µM | [18] 38 µM | [19] 1.91 µM | [20] 2.95 µM

O=S(=O)(c1ccccc1)c1cccc2c1NCCC2
inactive: [1] 78.7 µM | [2] 33.3 µM | [3] 58.9 µM | [4] 20.8 µM | [5] > 10 µM | [6] 21.8 µM | [7] 52.1 µM | [8] 39.6 µM | [9] 47.2 µM | [10] 29.1 µM | [11] 49.9 µM | [13] > 100 µM | [14] 58.6 µM | [15] 27.7 µM | [16] 31 µM | [17] 45 µM | [18] 64.9 µM | [19] 23.6 µM | [20] 27.5 µM

CC1(C)CC(=O)c2c(-c3ccc(Cl)cc3)c(C#N)c(=S)n(C3OC(CO)C(O)C(O)C3O)c2C1 (centres undefined)
inactive: [1] 27.5 µM | [2] 36.1 µM | [3] 39 µM | [4] 45.9 µM | [5] 34 µM | [6] 20.2 µM | [7] 25.4 µM | [8] 33.5 µM | [9] 19.1 µM | [10] 31 µM | [11] 20.9 µM | [12] 50.8 µM | [13] > 100 µM | [14] 35.7 µM | [15] 36.2 µM | [16] 38 µM | [17] 25.4 µM | [18] 53.3 µM | [19] 28.4 µM | [20] 29.6 µM
